Experiment [1] deals with T1, LFA-1 binding to immobilized ICAM-1 (Homo sapiens, UniProt P05107+P20701).
T1 construct: made in house; host or cells: transfected 293 cells (LFA-1)
The experiment can be described thus: LFA-1/ICAM-1 protein-protein assay (solid-phase ELISA). Particulars: read-out: LFA-1/ICAM-1 Protein-Protein Assay IC50. How it is done:
(a) LFA-1/ICAM-1 screening test: LFA-1/ICAM-1 antagonist activity, defined as the ability of compounds of the invention to block LFA-1 binding to immobilized ICAM-1, was quantitated using a solid-phase ELISA.
(§1) Typically, fusion protein consisting of the entire extracellular domain of human ICAM-1 and the Fc domain of human IgG (5dICAM-Ig) was coated onto 96-well microtiter plates (0.15 μg in 100 μL PBS) overnight at 4° C. The plates were then blocked with 150 μL of 1% BSA/1 mM MnCl2/0.14 M NaCl/20 mM HEPES, pH 7.2 for 1 h at 37° C. and washed 3 times (150 μL each) with Wash Buffer (50 mM Tris, pH 7.4/100 mM NaCl/1 mM MnCl2/0.05% Tween 20). Stock solutions (100 μM in 100% DMSO) of test compounds were diluted 50 fold with 150 μL of Binding Buffer (0.05% BSA/0.05% Tween 20/1 mM MnCl2/0.14 M NaCl/20 mM HEPES, pH 7.2) plus 10% DMSO. […] Fifty μL per well of each dilution was added to the ICAM-1 coated plates, followed by 50 μL per well of membrane-bound LFA-1 (280 ng/mL in Binding Buffer) derived from transfected 293 cells. The plates were shaken vigorously for 1 min (room temperature) and gently for 2 h (37° C.). After incubation, the plates were washed 3 times (150 μL each) with Wash Buffer. Mouse anti-human integrin β2 monoclonal antibody was added (100 μL/well, 1 μg/mL in Binding Buffer) and allowed to incubate for 1 h (37° C.) with gentle agitation. The plates were then washed 3 times with Wash Buffer. HRP-conjugated goat anti-mouse IgG (100 μL/well, 1:1500 dilution in Binding Buffer) was added to each well, followed by incubation for 1 h (37° C.), and concluded by three washes (150 μL each) with Wash Buffer. TMB solution (100 μL per well) was added for color development (10 min). The reaction was stopped by the addition of 100 μL of 1 M H3PO4 to each well. The plates were then read at 450 nm. The inhibitory activities of test compounds were determined by the IC50s.
as §1, with “LFA-1/ICAM-1 antagonist activity, defined as the ability to block LFA-1 binding to immobilized ICAM-1, was quantitated using a solid-phase ELISA. Typically,” for “Typically,”, “(0.05 %” for “(0.05%”, “nm.” for “nm. The inhibitory activities of test compounds were determined by the IC50s.”

Experiment [2] concerns T lymphocyte proliferation (C57BI/6 spleen cells with irradiated BALB/c spleen cells). The experiment can be described thus: Mixed lymphocyte reaction (MLR), one-way. The experiment is classed as cell-based, mice. The note with it: read-out: MLR IC50. The source says: Admixture of murine spleen cells from two different inbred strains of mice induces proliferation of T lymphocytes. The magnitude of T cell proliferation depends on the extent of disparity in the major histocompatibility antigens between the two strains. Splenic T lymphocytes from both strains proliferate due to alloantigen recognition, a process for which the interaction of ICAM-1 on antigen-presenting cells with LFA-1 on lymphocytes is necessary. The ability of antagonists to inhibit T lymphocyte proliferation following recognition of alloantigens was assessed in a one-way MLR, where cells from one strain were irradiated to permit measurement of the proliferative response of cells from the other strain. Spleen cells were washed three times in tissue culture medium (TCM; see below). […] One hundred microliters of serial dilutions of antagonists or TCM were added to the spleen cell mixture. The total volume in each well was 200 μL. TCM was RPMI1640 containing 10% heat-inactivated fetal bovine serum, […] L-glutamine, 100 Units/ml each of penicillin and streptomycin and 5×10^−5 M 2-mercaptoethanol. Dilutions of antagonists were prepared in TCM. Plates were incubated in 5% CO2 for 3 days. On the third day, 0.5 μCi of tritiated thymidine (10 μCi/mL) was added to all the wells. Cells were harvested 6 h later on a 96-well plate harvester and the amount of tritiated thymidine incorporated was assessed in a liquid scintillation counter.

SMILES strings stand for the structures. Where a name gives a salt, the structure may show the parent alone. Read-outs that look alike come from different tables or passages of the source.

T1 sequence (P20701 26-1170): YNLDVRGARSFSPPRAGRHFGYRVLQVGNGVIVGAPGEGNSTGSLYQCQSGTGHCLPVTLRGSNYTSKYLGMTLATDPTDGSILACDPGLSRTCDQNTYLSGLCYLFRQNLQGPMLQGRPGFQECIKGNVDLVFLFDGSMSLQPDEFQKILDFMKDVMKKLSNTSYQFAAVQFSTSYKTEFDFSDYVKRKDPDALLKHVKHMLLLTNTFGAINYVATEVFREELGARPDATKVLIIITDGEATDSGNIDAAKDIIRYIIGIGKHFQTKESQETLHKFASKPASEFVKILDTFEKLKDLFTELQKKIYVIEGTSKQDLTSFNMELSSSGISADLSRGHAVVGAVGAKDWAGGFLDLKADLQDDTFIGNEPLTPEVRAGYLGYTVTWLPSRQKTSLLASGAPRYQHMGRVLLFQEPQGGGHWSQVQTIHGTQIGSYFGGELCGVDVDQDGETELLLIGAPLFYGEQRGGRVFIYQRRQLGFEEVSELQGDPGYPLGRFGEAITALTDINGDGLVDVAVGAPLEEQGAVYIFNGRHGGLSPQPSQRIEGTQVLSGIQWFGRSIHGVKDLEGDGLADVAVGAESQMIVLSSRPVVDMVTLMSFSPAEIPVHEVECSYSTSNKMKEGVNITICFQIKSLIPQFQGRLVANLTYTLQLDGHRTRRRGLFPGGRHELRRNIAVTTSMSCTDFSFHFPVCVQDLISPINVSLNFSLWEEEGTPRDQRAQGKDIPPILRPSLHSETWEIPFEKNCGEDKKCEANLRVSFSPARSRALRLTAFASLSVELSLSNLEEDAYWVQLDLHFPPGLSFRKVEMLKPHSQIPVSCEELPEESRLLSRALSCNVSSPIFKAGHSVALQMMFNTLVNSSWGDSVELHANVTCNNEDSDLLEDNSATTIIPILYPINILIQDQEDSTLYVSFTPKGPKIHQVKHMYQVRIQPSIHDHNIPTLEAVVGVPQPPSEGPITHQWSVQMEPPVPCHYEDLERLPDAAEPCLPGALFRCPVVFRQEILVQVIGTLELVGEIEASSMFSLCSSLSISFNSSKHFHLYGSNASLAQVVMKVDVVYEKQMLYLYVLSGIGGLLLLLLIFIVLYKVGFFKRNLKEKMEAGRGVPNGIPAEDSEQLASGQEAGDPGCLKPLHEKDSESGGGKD
T1 sequence (P05107 23-769): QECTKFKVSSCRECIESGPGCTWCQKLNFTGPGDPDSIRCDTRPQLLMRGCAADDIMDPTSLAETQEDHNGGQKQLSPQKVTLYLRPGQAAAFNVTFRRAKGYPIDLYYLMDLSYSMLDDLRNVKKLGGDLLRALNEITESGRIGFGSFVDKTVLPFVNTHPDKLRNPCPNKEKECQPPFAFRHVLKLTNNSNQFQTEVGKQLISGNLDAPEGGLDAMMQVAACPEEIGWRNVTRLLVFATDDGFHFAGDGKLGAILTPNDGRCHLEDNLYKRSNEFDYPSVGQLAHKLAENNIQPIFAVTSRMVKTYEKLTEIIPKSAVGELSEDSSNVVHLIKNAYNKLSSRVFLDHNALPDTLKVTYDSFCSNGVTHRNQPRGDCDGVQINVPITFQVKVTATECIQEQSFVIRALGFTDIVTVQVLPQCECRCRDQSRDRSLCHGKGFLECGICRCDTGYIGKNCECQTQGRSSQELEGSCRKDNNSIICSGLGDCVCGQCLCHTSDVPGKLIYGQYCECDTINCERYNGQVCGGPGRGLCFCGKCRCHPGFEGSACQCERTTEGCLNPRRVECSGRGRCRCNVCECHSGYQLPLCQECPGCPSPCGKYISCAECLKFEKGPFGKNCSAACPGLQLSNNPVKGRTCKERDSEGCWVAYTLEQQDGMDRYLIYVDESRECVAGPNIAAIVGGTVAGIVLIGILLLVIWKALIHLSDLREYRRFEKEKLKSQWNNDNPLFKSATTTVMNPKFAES

For `COc1cc(C(=O)NC[C@H](NC(=O)c2ccc(C(=O)NCc3cccc(O)c3)cc2Cl)C(=O)O)nc2ccccc12` [Example 182], the IC50 in experiment [1] worked out at 15 nM.
Take `O=C(Cc1ccccc1)NC[C@H](NC(=O)c1c(Cl)cccc1Cl)C(=O)O` [Example 204]: the IC50 in experiment [1] was 42 nM.
Still for that read-out and setting: then `O=C(Cc1ccc([N+](=O)[O-])cc1)NC[C@H](NC(=O)c1c(Cl)cccc1Cl)C(=O)O` [Example 205], with 31 nM; and `O=C1CC[C@@H](C(=O)NC[C@H](NC(=O)c2c(Cl)cccc2Cl)C(=O)O)O1` [Example 208], with 23 nM; and `O=C(N[C@@H](CNC(=O)C1CC1)C(=O)O)c1c(Cl)cccc1Cl` [Example 210], with 36 nM.
Same read-out and setting: then `O=C(N[C@@H](CNC(=O)C1CCC1)C(=O)O)c1c(Cl)cccc1Cl` [Example 212], with 36 nM; and `O=C(N[C@@H](CNC(=O)C1CCCC1)C(=O)O)c1c(Cl)cccc1Cl` [Example 213], with 31 nM; and `O=C(N[C@@H](CNC(=O)C1CCCCC1)C(=O)O)c1c(Cl)cccc1Cl` [Example 215], with 35 nM.
For the molecule `O=C(/C=C/c1cccs1)NC[C@H](NC(=O)c1c(Cl)cccc1Cl)C(=O)O` [Example 218], the IC50 in experiment [1] came to 33 nM.
For `COc1cccc(C(=O)NC[C@H](NC(=O)c2c(Cl)cccc2Cl)C(=O)O)c1` [Example 221], the IC50 in experiment [1] was 24 nM.
As to `O=C(NC[C@H](NC(=O)c1c(Cl)cccc1Cl)C(=O)O)c1ccc2[nH]ccc2c1` [Example 225], the IC50 in experiment [1] amounted to 31 nM.
On to `Cc1cccc(C(=O)NC[C@H](NC(=O)c2c(Cl)cccc2Cl)C(=O)O)n1` [Example 227], for which the IC50 was determined as 8550 nM in experiment [2] (Mus musculus, T-lymphocyte) and 21 nM in experiment [1].
For `N[C@H](Cc1ccc(O)cc1)C(=O)NC[C@H](NC(=O)c1ccc(C(=O)NCc2cccc(O)c2)cc1Cl)C(=O)O` [Example 274] the same measures were 3700 nM and 4.4 nM.
The like results for `N[C@H](CC(=O)O)C(=O)NC[C@H](NC(=O)c1ccc(C(=O)NCc2cccc(O)c2)cc1Cl)C(=O)O` [Example 275] were, in that order, 540 nM and 2.2 nM.
With `Nc1cccc(C(=O)NC[C@H](NC(=O)c2ccc(C(=O)NCc3cccc(O)c3)cc2Cl)C(=O)O)c1` [Example 288], the IC50 in experiment [2] (Mus musculus, T-lymphocyte) came to 210 nM; in experiment [1] it was 1.2 nM.
The like results for `N[C@@H](CO)C(=O)NC[C@H](NC(=O)c1ccc(C(=O)NCc2cccc(O)c2)cc1Cl)C(=O)O` [Example 292] were, in that order, 3650 nM and 5.4 nM.
Consider `O=C(NCc1cccc(O)c1)c1ccc(C(=O)N[C@@H](CNC(=O)c2ccccc2)C(=O)O)c(Cl)c1` [Example 304, 3-benzoylamino-N-[2-chloro-4-[[[(3-hydroxyphenyl)methyl]amino]carbonyl]benzoyl]-L-alanine, sodium salt], for which the IC50 in experiment [2] (sodium salt) was 270 nM; in experiment [1], 1.1 nM.
In the case of `CCCCS(=O)(=O)NC[C@H](NC(=O)c1ccc(C(=O)N[C@H](C)c2cccc3ccccc23)cc1Cl)C(=O)O` [Example 361, 3-(1-butanesulfonylamino)-N-[2-chloro-4-[[[(1R)-1-(1-naphthalenyl)ethyl]amino]carbonyl]benzoyl]-L-alanine], the IC50 is 21500 nM in experiment [2] (Mus musculus, T-lymphocyte) and 42 nM in experiment [1].
In the case of `Nc1cccc(C(=O)NCc2ccc(C(=O)N[C@@H](CNC(=O)c3ccccc3)C(=O)O)c(Cl)c2)c1` [Example 367], the IC50 in experiment [2] (Mus musculus, T-lymphocyte) turned out to be 17000 nM; in experiment [1] it was 41 nM.
The like results for `O=C(NCc1ccc(C(=O)N[C@@H](CNC(=O)c2ccccc2)C(=O)O)c(Cl)c1)c1cnc2ccccc2c1` [Example 370] were, in that order, 11000 nM and 40 nM.

For the origin of these results see US20040006236A1, “Diaminopropionic acid derivatives” (priority 1999, published 2004).
